# Results: patent US8501955B2, “Acetamide derivatives as glucokinase activators, their process and medicinal application” (Advinus Therapeutics Private Limited, priority 2007, dated 2013)
# What was measured:
# primary rat hepatocytes = experiment: Measurement of glycogen synthesis in primary rat hepatocytes; type: cell-based; details: 10 mM glucose, fold increase over DMSO control; for fold induction at 10 µM: Rattus norvegicus, Hepatocyte, 3 h, 10 μM compound
# Protocol: Primary hepatocytes are collected from male Wistar rats, and tested for viability by trypan blue exclusion. Primary hepatocytes cultures with viability greater than 95% are selected for the glycogen synthesis assay. The cells are seeded in a 48-well plate at a density of 200,000 cells/well in 250 μl Minimal Essential Medium (MEM) containing 10% foetal calf serum (FCS) and 1.7 μM insulin, and incubated for 4 hours at 37° C. to allow attachment. The medium is replaced with fresh MEM containing 10% FCS, 1.7 μM insulin and 10 nM dexamethasone, and the cells are incubated for 16 hours at 37° C. The medium is then replaced with fresh MEM (serum-free) containing 2 μCi/ml of D-[U^14C]-Glucose along with 10 μM of the compound in a final DMSO concentration of 0.1%. The final glucose concentration is brought to 10 mM by the addition of D-Glucose (MEM already contains 5 mM glucose). The cells are incubated for 3 hours at 37° C. The cells are washed twice with 150 mM NaCl, lysed with 0.1 N NaOH, and the lysate precipitated with 8% w/v trichloroacetic acid (TCA) and 1 mg/well unlabeled glycogen as carrier. Cell debris is pelleted by centrifugation, the supernatant is removed, and the glycogen is precipitated with 63% ethanol. After another round of centrifugation, the supernatant is removed, and the pellet containing the precipitated glycogen is dried overnight. De novo synthesized glycogen is estimated in a scintillation counter (MicroBeta Trilux, Perkin Elmer), and expressed as fold increase over DMSO control.
# The protocol for the glycogen assay is based on the method described in “Biochem J. 1990 Feb. 15; 266(1): 91-102” with a few minor modifications. The protocol for isolation of primary rat hepatocytes is based on the method described in “Methods in Enzymology, Vol. III. pp 34-50. Ed. by S. P. Colowick and N. O. Kaplan. New York, Academic Press, 1957” with a few minor modifications.
# Compounds described in formula (I), in concentration ranges from 1.0 nM to 500 μM, are tested in glycogen synthesis assay described above.
# [1] = target: T1, purified human recombinant GK (Homo sapiens, UniProt P35557); experiment: Glucokinase activity assay (coupled enzymatic GK/G6PD assay, NADH absorbance at 340 nm); type: biochemical; details: for EC50: EC50 of % change in S0.5 of glucokinase for glucose, sigmoidal fit, read-out: EC50 (with respect to % ΔS0.5); for Emax: read-out: % Emax (with respect to % ΔS0.5)
# T1 sequence (P35557 1-465): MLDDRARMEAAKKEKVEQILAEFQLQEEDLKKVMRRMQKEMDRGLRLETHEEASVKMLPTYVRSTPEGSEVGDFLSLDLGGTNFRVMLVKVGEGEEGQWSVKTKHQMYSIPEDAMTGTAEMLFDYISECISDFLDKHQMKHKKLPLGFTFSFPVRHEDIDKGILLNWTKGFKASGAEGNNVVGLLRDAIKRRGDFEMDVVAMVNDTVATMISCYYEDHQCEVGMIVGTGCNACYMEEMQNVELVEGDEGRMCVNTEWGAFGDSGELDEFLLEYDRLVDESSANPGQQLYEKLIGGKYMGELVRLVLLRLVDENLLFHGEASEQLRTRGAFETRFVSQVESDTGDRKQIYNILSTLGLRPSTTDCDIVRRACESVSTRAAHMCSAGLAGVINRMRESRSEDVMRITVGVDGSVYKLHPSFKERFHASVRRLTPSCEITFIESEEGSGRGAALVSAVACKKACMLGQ
# Description: The glucokinase (GK) assay is a coupled enzymatic assay. GK catalyzes the first step of glycolysis, the conversion of glucose to glucose-6-phosphate (G6P) in the presence of ATP. G6P in turn is converted by glucose-6-phosphate dehydrogenase (G6PD) to 6-phosphogluconate, a process that requires NAD, resulting in NADH formation. Since the GK-catalyzed step is the rate-limiting step of this coupled enzymatic process, the rate of accumulation of 6-phosphogluconate and NADH is directly proportional to the rate of glucose phosphorylation by GK. The rate of the GK-catalyzed reaction can therefore be measured by monitoring the increase in NADH absorbance at 340 nm.
# The assay is carried out according to the protocol outlined in Hariharan et al (1997), Diabetes 46: 11-16. Briefly, the test compounds are incubated in a reaction mix containing 25 mM HEPES (pH 7.2), 10 mM MgCl2, 100 mM KCl, 5 mM ATP, 2 mM DTT, 0.5 mM NAD, 1 U/ml Leuconostoc mesenteroides G6PD, 0.3 U/ml of purified human recombinant GK, and different concentrations of glucose. Enzymatic activity is calculated from the initial reaction velocity, measured from the change in NADH absorbance as a function of time.
# Compounds described in formula (I), in concentration ranges from 1.0 nM to […] are tested in the purified human recombinant glucokinase assay described above.
# A compound is considered to be a glucokinase activator if it, in its testable range of concentrations, yields a higher rate of glucose phosphorylation than in its absence at a particular glucose concentration, for example at 5 mM glucose.
# Compounds of general formula (I) are tested in the in vitro GK enzymatic assay to monitor dose-dependent effect on glucokinase activation (in kinetic mode), as described above, at various glucose concentrations. The S0.5 of glucokinase for glucose at different concentration of each compound of interest is calculated from the following modified version of the Michaelis-Menten equation, V=Vmax[S]^n/(S0.5^n+[S]^n), where [S] is the glucose concentration and n is the Hill coefficient (taken as 1.7 to account for the sigmoidal kinetics of glucokinase with respect to glucose). The S0.5 is plotted against the log of the compound concentration. The change in the S0.5 of glucokinase (ΔS0.5) for glucose is calculated by subtracting the S0.5 at each concentration of the compound from the S0.5 in the vehicle control. The ΔS0.5 is then normalized to a percent scale, where the S0.5 in the vehicle control is set to 0% and 0 mM glucose is set to 100%. The % ΔS0.5 is then plotted against the log of the compound concentration. The EC50 and Emax of % change in S0.5 is obtained from the sigmoidal fit of the data. Detailed protocol has been described in our copending application no. WO 2008/104994 which is incorporated herein by reference. Characterization data of some representative glucokinase activators of the present disclosure, which are illustrative but not limiting, are given in table 1 below.
# [2] = Emax of % change in S0.5, vehicle S0.5 = 0%, 0 mM glucose = 100%
EC50 [1] [nM],"Emax [1, 2] [%]","% Emax (with respect to % ΔS0.5) [1, 2] [%]",Structure (SMILES),fold induction at 10 µM (primary rat hepatocytes),Fold increase in glycogen synthesis at 10 μM compound (primary rat hepatocytes; 3 hours) [fold]
110,90,,O=C(Nc1ncc(Oc2ccc(C(=O)N3CCC3)cc2)s1)C(OC1CCOCC1)c1ccc(S(=O)(=O)C2CC2)cc1 (stereo not drawn) [Example G6],6.2,
2370,90,,"O=C(O)Cc1csc(NC(=O)C(Oc2ccc(F)cc2F)c2ccc(S(=O)(=O)C3CC3)cc2)n1 (single isomer, unassigned; (-)) [Example E3, (−){2-[2-(4-Cyclopropanesulfonylphenyl)-2-(2,4-difluorophenoxy)acetylamino]-thiazol-4-yl}acetic acid]",9.5,
6800,90,,"CC(=O)Nc1cccc(OC(C(=O)Nc2nc(CC(=O)O)c(Cl)s2)c2ccc(S(=O)(=O)C3CC3)cc2)c1 (stereo not drawn) [Example B20, {2-[2-(3-Acetylaminophenoxy)-2-(4-cyclopropanesulfonylphenyl)acetylamino]-5-chloro-thiazol-4-yl}acetic acid]",6.8,
2470,,90,"O=C(O)Cc1csc(NC(=O)C(Oc2ccc(F)cc2F)c2ccc(S(=O)(=O)C3CC3)cc2)n1 (single isomer, unassigned; (+)) [Example F3, (+)-{2-[2-(4-Cyclopropanesulfonylphenyl)-2-(2,4-difluorophenoxy)acetylamino]thiazol-4-yl}acetic acid]",,7.0
830,90,,"O=C(O)Cc1nc(NC(=O)C(Oc2ccc(Cl)cc2)c2ccc(S(=O)(=O)C3CC3)cc2)sc1Cl (stereo not drawn) [Example B6, {5-Chloro-2-[2-(4-chlorophenoxy)-2-(4-cyclopropanesulfonylphenyl)-acetylamino]-thiazol-4-yl}acetic acid]",8.6,
,,,"Cc1csc(NC(=O)C(Oc2ccc(F)cc2F)c2ccc(S(=O)(=O)C3CC3)cc2)n1 (stereo not drawn) [Example A15, 2-(4-Cyclopropanesulfonylphenyl)-2-(2,4-difluorophenoxy)-N-(4-methyl-thiazol-2-yl)acetamide]",3.7,
,,,"COc1ccc2nc(NC(=O)C(OC3CCOCC3)c3ccc(S(=O)(=O)C4CC4)cc3)sc2n1 (single isomer, unassigned; (+)) [Example H12A, (+)2-(4-Cyclopropanesulfonyl-phenyl)-N-(5-methoxy-thiazolo[5,4-b]pyridin-2-yl)-2-(tetrahydro-pyran-4-yloxy)-Acetamide]",5,
1000,90,,"O=C(O)Cc1csc(NC(=O)C(Oc2ccc(F)cc2F)c2ccc(S(=O)(=O)C3CCCCC3)cc2)n1 (stereo not drawn) [Example B16, {2-[2-(4-Cyclohexanesulfonylphenyl)-2-(2,4-difluorophenoxy)acetylamino]-thiazol-4-yl}acetic acid]",5.5,
430,90,,"O=C(O)Cc1nc(NC(=O)C(Oc2ccc(F)cc2F)c2ccc(S(=O)(=O)N3CCCCC3)cc2)sc1Cl (single isomer, unassigned; (-)) [Example H3A, (−) (5-Chloro-2-{2-(2,4-difluoro-phenoxy)-2-[4-(piperidine-1-sulfonyl)-phenyl]-acetylamino}-thiazol-4-yl)-acetic acid]",,
110,95,,"O=C(Nc1ncc(F)s1)C(Oc1ccc(F)cc1F)c1ccc(S(=O)(=O)C2CCCC2)c(Cl)c1 (stereo not drawn) [Example A36, 2-(3-Chloro-4-cyclopentanesulfonylphenyl)-2-(2,4-difluorophenoxy)-N-(5-fluoro-thiazol-2-yl)acetamide]",,
> 10000,,,"CCOc1sc(NC(=O)C(Oc2ccc(F)cc2F)c2ccc(S(=O)(=O)C3CC3)cc2)nc1CC(=O)O (stereo not drawn) [Example B22, {2-[2-(4-Cyclopropanesulfonylphenyl)-2-(2,4-difluorophenoxy)acetylamino]-5-ethoxy-thiazol-4-yl}acetic acid]",,
220,91,,"O=C(O)Cc1ccc(Oc2cnc(NC(=O)C(OC3CCOCC3)c3ccc(S(=O)(=O)C4CC4)cc3)s2)cc1 (stereo not drawn) [Example B100, (4-{2-[2-(4-Cyclopropanesulfonyl-phenyl)-2-(tetrahydro-pyran-4-yloxy)-acetylamino]-thiazol-5-yloxy}-phenyl)-acetic acid]",,
130,95,,"O=C(Nc1ncc(Cl)s1)C(Oc1ccc(F)cc1F)c1ccc(S(=O)(=O)C2CC2)cc1 (stereo not drawn) [Example A2, N-(5-Chlorothiazol-2-yl)-2-(4-cyclopropanesulfonylphenyl)-2-(2,4-difluorophenoxy)acetamide]",,
390,95,,"Cn1ccc(NC(=O)C(Oc2ccc(F)cc2F)c2ccc(S(=O)(=O)C3CCCC3)cc2)n1 (stereo not drawn) [Example A38, 2-(4-Cyclopentanesulfonylphenyl)-2-(2,4-difluorophenoxy)-N-(1-methyl-1H-pyrazol-3-yl)acetamide]",,
,,,"O=C(O)c1ccc(Oc2cnc(NC(=O)C(OC3CCOCC3)c3ccc(S(=O)(=O)C4CC4)cc3)s2)c(F)c1 (stereo not drawn) [Example B94, 4-{2-[2-(4-Cyclopropanesulfonyl-phenyl)-2-(tetrahydro-pyran-4-yloxy)-acetylamino]-thiazol-5-yloxy}-3-fluoro-benzoic acid]",8.7,
,,,"O=C(O)c1ccc(Oc2cnc(NC(=O)C(OC3CCOCC3)c3ccc(S(=O)(=O)C4CC4)cc3)s2)cc1 (single isomer, unassigned; (+)) [Example H7A, (+) 4-{2-[2-(4-Cyclopropanesulfonyl-phenyl)-2-(tetrahydro-pyran-4-yloxy)-acetylamino]-thiazol-5-yloxy}-benzoic acid]",7.7,
